The values that follow come from US20200131227A1, “POLYPEPTIDE WITH TUMOUR BINDING ACTIVITY” (RUPRECHT-KARLS-UNIVERSITÄT HEIDELBERG, priority 2017, published 2020).

Where a SMILES comes first, the peptide text is derived from it. Bridges are numbered along the chain shown (N, C = ends). Roman numbers before positions name the chains, in order. Where no end group is shown, it is not given here. The star is where a group is joined. DOTA = O=C(O)CN1CCN(CC(=O)O)CCN(CC(=O)*)CCN(CC(=O)O)CC1

Broadly, the IC50 is the concentration at which inhibition is half-maximal. Read a low IC50 as inhibition by little substance.

The subject of assay [1] is HNSCC tumor sections (HNO97 xenograft, HNO444, HNO399, HNO210). As to the kind of experiment: Histochemical peptide staining of HNSCC tumor cryosections. Also on record: species or system human. Particulars: biotinylated PEG(12)-peptide, 10^-5 M. The method, then: Staining with the biotinylated PEG(12)-SFITGv6 peptide was performed on acetone-fixed cryosections (5 μm) of tumor tissues after blocking of unspecific binding using the Avidin/Biotin Blocking Kit (SP-2001, Vector Laboratories). A stock solution of the lyophilized peptide was prepared by dilution in 5% aqueous DMSO. Slices were incubated overnight at 4° C. with 10^-5 M peptide concentration in antibody diluent (DAKO). Detection of bound peptide was carried out with the Vectastain Elite ABC Kit (PK-6100, Vector Laboratories) according to manufacturer's protocol. Peptide specificity was ensured by a scrambled (GRD) PEG(12)-SFITGv6 derivate, the somatostatin receptor ligand DOTATOC and negative controls (without peptide or primary antibody) Staining results were assessed by bright field microscopy (BX50) with the SC30 camera and the cell Sense software (all Olympus).
Immunohistochemical stainings were performed by use of the biotinylated PEG(12)-labled peptides (SFITGv6, SFLAP3) on 5 μm acetone-fixed tumor tissue cryosections. To prevent background staining we initially applied the Avidin/Biotin Blocking Kit (SP-2001, Vector Laboratories). The lyophilized peptides were diluted in 5% aqueous DMSO preparing a 1 mM Stock solution. The HNSCC cryosections were incubated with 10^−5 M peptide concentration in antibody diluent (DAKO) at 4° C. overnight. To detect bound peptide the Vectastain Elite ABC Kit (PK-6100, Vector Laboratories) was applied according to manufacturer's protocol. Peptide binding specificity was ensured by use of a peptide derivate (scrambled control) and negative controls (without peptide). Due to instability of the peptide binding staining results were assessed on the same day by bright field microscopy (BX50) with the SC30 camera and the cell Sense software (all Olympus).

Assay [2] concerns HNO97 cells. Type of assay: binding, human. Particulars: 48 h. As to the method: (§1) For binding studies, 2.5×10^5 to 4×10^5 cells were seeded in 6-well plates and cultivated for 48 hours. Cells were incubated for 60 min with 1 mL serum-free medium containing the ^125I-labeled peptide (see above). For competition experiments, cells were simultaneously exposed to unlabeled (10^-4 M to 10^-10 M) and ^125I-labeled peptides. After three washing steps with PBS (pH 7.4) the cells were lysed with 0.5 mL of 0.3 M NaOH. Experiments concerning the internalization, kinetics and efflux were additionally performed with ^177Lu-DOTA-SFITGv6. To evaluate kinetics and efflux HNO97 cells were incubated for different time intervals (10 min to 480 min) and 60 min, respectively, with ^177Lu-DOTA-SFITGv6 and lysed as described. To continue with the efflux experiment radioactive medium was replaced by non-radioactive medium and cells were incubated again for 60 to 240 min before measuring radioactivity of the cell lysates and the medium. For internalization experiments the cells were exposed to ^177Lu-DOTA-SFITGv6 for different time intervals (10 to 240 min) at 37° C. and 4° C. After three washing steps with PBS the cells were incubated with 1 mL of glycine-HCl 50 mmol/L in PBS (pH 2.8) for 10 min at RT to remove the surface bound activity. Then, cells were washed with 3 mL of ice-cold PBS and lysed as described. Radioactivity was determined in a gamma counter and calculated as percentage of the applied dose per 1×10^6 cells. Experiments were performed three times, and three repetitions per independent experiment were acquired.

The next assay has as its system Capan-2 cells. As to the kind of experiment: In vitro binding, internalization and efflux on Capan-2 cells. Format: cell-based, human. The method, then: For in vitro binding Studies, 4*10^5-6*10^5 cells were seeded in 6 well plates and cultivated for 24 to 48 hours. At the start of the experiment the medium was replaced with 1 ml serum free medium with a definite amount of radioactive labeled peptide per well. For normal binding assays the cells were incubated for 60 min at 37° C. and afterwards washed 3 times with PBS (pH 7.4). Cells were lysed with 2 times 0.5 ml of a 0.3 M NaOH +0.2% SDS lysis-buffer. Competition assays were performed with ^125I-labeled and unlabelled (10^−6 to 10^−11M) peptide and incubated at the same time for 60 min.
Cells were incubated for 10 to 240 min with ^177Lu-labelled peptide in internalization assays. After the washing steps, the cells were incubated with 1 ml glycine-HCl (1 M, pH 2.2) buffer for 10 min to remove surface bound peptide. Prior to the lyses the cells were washed again. Values are given as percentage of applied dose per 10^6 cells.
The efflux was tested with ^177Lu-labeled peptides. After 60 min incubation the radioactive medium was removed and 1 ml fresh serum-free medium was added. After additional incubation of 60, 120 or 240 min, cell bound activity was measured.

For the next assay, the system named is carcinoma cell lines. As to the kind of experiment: In vitro binding of radiolabeled peptides to several carcinoma cell lines. Format: cell-based, human. Particulars: HNO97, HNO399, HNO223, HNO210, HNO199; 60 min. The method, then: as §1
(§2) For the assessment of the peptide binding capacity in vitro, 2.5-4×10^5 cells were seeded into 6-well plates and cultivated for 48 h. ^125I-labeled peptide resuspended in 1 mL serum-free medium was added and incubated for either 10 min or 60 min with or without different concentrations of unlabeled peptide (10^−4-10^−11 M). Afterwards, cell monolayers were washed three times with 1 mL phosphate-buffered saline (pH 7.4) to remove unbound peptide and the cells were harvested with 1.4 mL lysis buffer (0.3 M NaOH). To evaluate kinetic properties the cells were exposed to ^177Lu-DOTA-labeled peptides for 10, 30, 60, 120, and 240 min, respectively, and lysed as described. For the efflux experiments the cells were incubated with ^177Lu-DOTA-labeled peptides for 60 min. Thereafter, radioactive medium was replaced by non-radioactive medium and cell monolayers were incubated for additional 60, 120, and 240 min and afterwards lysed as described earlier. The internalization was assessed after exposure of the cells to ^177Lu-DOTA-labeled peptides for 10, 30, 60, 120, and 240 min at 37° C. Unspecifically bound peptide was removed from the surface by incubation with 1 M glycine-HCl solution (pH 2.2) for 10 min. The monolayer cell was rinsed with PBS and cells were lysed as described before. Radioactivity was determined in a y-counter and calculated as percentage of the applied dose per 1×10^6 cells. Experiments were performed three times, and three repetitions per independent experiment were acquired.

Assay [3] concerns HNO97 cells. As to the kind of experiment: In vitro binding, kinetics, internalization and efflux on HNO97 cells. Format: cell-based, human. Particulars: continuously increasing, within 480 min. As to the method: as §1, §2
Assay [4] deals with T1, integrin αvβ6 (ITGαvβ6) as expressed on human carcinoma cell lines and tumor tissue sections (human, UniProt P06756 31-1048; P18564 22-788).
T1 construct: whole, on cells; also called ITGAVB6; ITGαvβ6-expressing HNO97 cells
T1 sequence (P06756 31-1048, chain 1 of 2): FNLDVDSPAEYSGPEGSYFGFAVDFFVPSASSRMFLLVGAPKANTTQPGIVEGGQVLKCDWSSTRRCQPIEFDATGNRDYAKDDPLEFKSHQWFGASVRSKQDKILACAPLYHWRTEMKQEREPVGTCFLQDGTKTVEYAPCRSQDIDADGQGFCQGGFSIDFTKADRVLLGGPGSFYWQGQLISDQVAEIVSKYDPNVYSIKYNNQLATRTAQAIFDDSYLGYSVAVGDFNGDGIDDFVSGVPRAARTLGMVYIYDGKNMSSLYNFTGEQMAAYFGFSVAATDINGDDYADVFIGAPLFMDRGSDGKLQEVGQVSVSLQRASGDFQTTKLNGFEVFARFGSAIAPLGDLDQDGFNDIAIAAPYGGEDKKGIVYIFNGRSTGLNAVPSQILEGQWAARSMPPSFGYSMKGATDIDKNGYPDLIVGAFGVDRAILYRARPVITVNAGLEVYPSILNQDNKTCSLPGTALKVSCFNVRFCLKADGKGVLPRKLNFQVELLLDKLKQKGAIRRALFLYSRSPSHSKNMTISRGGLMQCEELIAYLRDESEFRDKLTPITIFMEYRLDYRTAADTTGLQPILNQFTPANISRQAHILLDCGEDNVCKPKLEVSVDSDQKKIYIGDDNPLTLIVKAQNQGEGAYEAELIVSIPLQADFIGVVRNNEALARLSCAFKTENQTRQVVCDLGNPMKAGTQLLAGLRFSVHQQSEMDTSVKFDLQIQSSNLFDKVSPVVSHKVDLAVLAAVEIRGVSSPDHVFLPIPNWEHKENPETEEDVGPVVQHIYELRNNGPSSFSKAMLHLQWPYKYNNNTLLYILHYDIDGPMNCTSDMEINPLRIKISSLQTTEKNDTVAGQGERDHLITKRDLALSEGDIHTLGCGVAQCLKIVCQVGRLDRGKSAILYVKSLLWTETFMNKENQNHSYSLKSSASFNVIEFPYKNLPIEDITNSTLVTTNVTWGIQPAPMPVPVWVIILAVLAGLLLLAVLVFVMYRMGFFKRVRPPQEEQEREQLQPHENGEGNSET
T1 sequence (P18564 22-788, chain 2 of 2): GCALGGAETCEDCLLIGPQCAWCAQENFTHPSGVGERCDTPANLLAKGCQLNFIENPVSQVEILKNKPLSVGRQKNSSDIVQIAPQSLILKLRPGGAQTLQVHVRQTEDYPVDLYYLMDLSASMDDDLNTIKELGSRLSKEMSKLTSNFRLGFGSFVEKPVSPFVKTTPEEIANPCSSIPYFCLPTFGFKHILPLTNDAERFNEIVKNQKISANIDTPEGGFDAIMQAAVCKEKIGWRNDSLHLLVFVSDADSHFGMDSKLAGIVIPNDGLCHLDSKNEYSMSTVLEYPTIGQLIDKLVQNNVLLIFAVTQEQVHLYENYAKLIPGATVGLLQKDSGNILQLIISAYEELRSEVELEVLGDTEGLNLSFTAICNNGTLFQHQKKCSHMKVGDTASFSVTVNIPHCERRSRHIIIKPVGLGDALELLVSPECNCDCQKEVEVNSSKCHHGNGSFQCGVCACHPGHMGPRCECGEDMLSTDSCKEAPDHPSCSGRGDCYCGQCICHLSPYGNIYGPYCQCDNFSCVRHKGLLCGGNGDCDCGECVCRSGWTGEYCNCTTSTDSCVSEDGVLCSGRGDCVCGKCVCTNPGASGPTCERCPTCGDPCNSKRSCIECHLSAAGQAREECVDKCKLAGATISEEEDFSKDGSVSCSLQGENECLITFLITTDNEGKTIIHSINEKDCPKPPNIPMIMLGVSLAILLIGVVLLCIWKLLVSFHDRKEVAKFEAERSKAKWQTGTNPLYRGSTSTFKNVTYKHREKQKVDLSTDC
As to the kind of experiment: unlabelled peptide competing with the 125I-labelled peptide on Capan-2 cells, 60 min.

For the molecule `C[C@@H](O)[C@@H]1NC(=O)[C@H](CCCCN)NC(=O)[C@@H](Cc2c[nH]c3ccccc23)NC(=O)[C@H](Cc2ccc(O)cc2)NC(=O)[C@@H](NC(=O)[C@@H](Cc2ccccc2)NC(=O)CN2CCN(CC(=O)O)CCN(CC(=O)O)CCN(CC(=O)O)CC2)CSSC[C@@H](C(=O)N[C@H](CO)[C@@H](C)O)NC1=O` [DOTATOC, DOTA(0)-Phe(1)-Tyr(3))octreotid, reference compound], in assay [1], the “histochemical peptide staining result” value is “could not observe any specific binding”.
Consider `CC(C)C[C@H](NC(=O)[C@H](CC(=O)O)NC(=O)CNC(=O)[C@H](CCCNC(=N)N)NC(=O)[C@@H]1CCCN1C(=O)[C@@H](N)CO)C(=O)N[C@@H](C)C(=O)N[C@H](C(=O)N[C@@H](CC(C)C)C(=O)NCC(=O)N[C@@H](Cc1c[nH]cn1)C(=O)N[C@@H](CCCCN)C(=O)N[C@@H](Cc1ccc(O)cc1)C(N)=O)C(C)C` [HBP-1, reference compound] (H-SPRGDLAVLGHKY-NH2; N-terminus and C-terminus assumed), for which the half-inhibitory concentration (IC50) with HNO97 cells [2] was 45.1 nM.
`CSCC[C@@H]1NC(=O)[C@H](CCCCN)NC(=O)[C@H](CC(=O)O)NC(=O)CNC(=O)[C@H](CCCNC(=N)N)NC(=O)[C@H](Cc2ccccc2)NC(=O)[C@H]([C@@H](C)O)NC(=O)[C@@H](NC(=O)[C@H](CCCNC(=N)N)NC(=O)CN)CSSC[C@@H](C(=O)N[C@@H](Cc2ccc(O)cc2)C(=O)N2CCC[C@H]2C(=O)N[C@@H](CC(=O)O)C(=O)O)NC(=O)[C@H](CC(C)C)NC(=O)[C@H](CCC(N)=O)NC1=O` [SFPF-10] (H-GRCTFRGDKMQLCYPD-OH; disulfide 3-13; N-terminus and C-terminus assumed) yielded an IC50 in the assay with HNO97 cells [2] of 18 nM.
Take “H2N-G-R-C1-T-G-R-G-D-L-G-R-L-K-C2-Y-P-D-COOH (H-GRCTGRGDLGRLKCYPD-OH; disulfide 3-14; SMILES CC(C)C[C@@H]1NC(=O)[C@H](CC(=O)O)NC(=O)CNC(=O)[C@H](CCCNC(=N)N)NC(=O)CNC(=O)[C@H]([C@@H](C)O)NC(=O)[C@@H](NC(=O)[C@H](CCCNC(=N)N)NC(=O)CN)CSSC[C@@H](C(=O)N[C@@H](Cc2ccc(O)cc2)C(=O)N2CCC[C@H]2C(=O)N[C@@H](CC(=O)O)C(=O)O)NC(=O)[C@H](CCCCN)NC(=O)[C@H](CC(C)C)NC(=O)[C@H](CCCNC(=N)N)NC(=O)CNC1=O) [SFLAP3K]”: the “cellular uptake of ^125I-labeled variant compared with SFLAP3” value in the assay on Capan-2 cells (different pancreatic carcinoma cell lines (FIG. 25D)) was “increased cellular uptake”.
For the molecule “SFLAP1: SFTI derivate with grafted LAP1 octamer RRGDLAFI (GRCTRRGDLAFICYPD; disulfide 3-13 (inferred); also: 125I on the tyrosine in labelled form)”, the “binding capacity of ^125I-labeled peptide across HNSCC cell lines” value in the assay with carcinoma cell lines was 4.1-12.1%.
With “^177Lu-DOTA-SFLAP3K: ^177Lu-DOTA-labeled SFLAP3K ({DOTA}-GRCTGRGDLGRLKCYPD; disulfide 3-14; also: DOTA loaded with 177Lu)”, the “cellular uptake of ^177Lu-DOTA-labeled peptide compared with ^177Lu-DOTA-SFLAP3” value in the assay on Capan-2 cells (10 and 60 min) is “did not result in an increased cellular uptake”. Further, in the assay on Capan-2 cells (during 4 hours following 60 min exposure), the “efflux (released into the culture medium)” value was 50%.
Turning to “^177Lu-DOTA-SFPF10: ^177Lu-DOTA-labeled SFPF-10 ({DOTA}-GRCTFRGDKMQLCYPD; disulfide 3-13 (inferred); also: DOTA loaded with 177Lu)”, the “binding of ^177Lu-DOTA-labeled peptide (kinetics)” value with HNO97 cells [3] is on record as “up to 23%”.
As for “biotinylated PEG(12)-SFITGv6: biotinylated PEG(12)-SFITGv6 peptide for histochemical staining (GRCTFRGDLMQLCYPD; disulfide 3-13; also: biotinylated PEG(12) label, site not given here)”, the “histochemical peptide staining result” value in assay [1] (listed as biotin-labeled SFITGv6) is “strong and homogenous tumor cell-specific binding”; in assay [1] (listed as biotinylated SFITGv6), “specific, strong and homogeneous binding”.

B1: ^177Lu-DOTA-SFLAP3 (peptide)
peptide: {DOTA}-GRCTGRGDLGRLCYPD
modifications: disulfide 3-13; also: DOTA loaded with 177Lu (or peptide 125I-labelled in competition assay)
notes: DOTA conjugate of SFLAP3
In turn, B1 had a half-inhibitory concentration (IC50) in assay [4] of 6.2 nM.

B2: ^177Lu-DOTA-SFLAP3K (peptide)
peptide: {DOTA}-GRCTGRGDLGRLKCYPD
modifications: disulfide 3-14; also: DOTA loaded with 177Lu (or peptide 125I-labelled in competition assay)
notes: DOTA conjugate of SFLAP3K
In assay [4], B2 returned an IC50 of 2.1 nM.

B3: ^177Lu-DOTA-SFLAP3-trimer (Formula (XXVII)) (peptide)
chain: {DOTA}-GSGSKGSGSKGSGSK
peptide: GRCTGRGDLGRLCYPD
modifications: disulfide II:3-II:13; also: 177Lu chelated by DOTA, three SFLAP3 units attached by oxime ligation, aminooxy-modified, sites not given here, only one SFLAP3 unit listed as chain
notes: Branched trimer; the exact connectivity stands only in the drawing of formula (XXVII), which is not readable here; also called trimerized peptide
Molecule B3 yielded an IC50 in assay [4] of 0.76 nM.
